“Also recorded” adds a separate entry of the source. Where two headings read alike, the source gives them in different places.
What was measured:
[1] = tested on: EGFR and ERK phosphorylation in PC9GR, HCC827 T790M and HCC4006 T790M cells; assay: Western blotting of signaling changes after 4 h drug treatment; assay type: cell-based, human
Method: Signaling changes were evaluated by western blotting after 4 h treatment. […] In (E and G), equal protein loading was confirmed by β-actin evaluation.
Immunoprecipitation and protein expression analysis
Whole cell lysates were prepared using ice-cold TNN-HS buffer (50 mM HEPES, pH 8.0, 150
protease inhibitor cocktail). Total cellular proteins were quantified using the Bio-Rad protein
assay. For immunoprecipitation, 600 μg of total protein was incubated with 6 μL of mouse
Biotechnology (Santa Cruz, CA) as the control overnight at 4°C with rotation and then incubated
with protein G-agarose beads (Roche, Indianapolis, IN) for 3 hours at 4°C. Beads were washed
five times with TNN-HS buffer, and immunoprecipitated proteins were eluted from beads with
30 μL of 2X SDS-PAGE sample buffer from Bio-Rad (Hercules, CA) at 95°C for 5 minutes.
pThr202/Tyr204-p44/42 MAPK, AKT, pSer473-AKT, and tSRC from Cell Signaling; GRB2,

[2] = tested on: patients with leukemia and lung cancer; conditions: cited from earlier work
[3] = target: T1, proteins in total cell lysates of PC9GR cells (Homo sapiens, UniProt P00533, DEL746-750/T790M); assay: Midostaurin affinity chromatography (drug pulldown) with LC-MS/MS, PC9GR lysate; assay type: binding; conditions: PC9GR lysate, E746-A750+T790M EGFR
T1 construct: endogenous in cells; host or cells: PC9GR
Method: (§1) LC-MS/MS analysis was performed in duplicate on a LTQ-Orbitrap MS (Thermo Fisher).
(§2) RNA isolated from PC9 and PC9GR cells were infected with either ARHG5 shRNA or scrambled shRNA and cDNA transcription using RNeasy Mini kit and QuantiTect Reverse Transcription kit from Qiagen (Valencia, CA). Human ARHG5 probe and human 18s rRNA endogenous control were purchased from Applied Biosystems (Foster City, CA). Quantitative real-time PCR reactions were run in triplicate on MicroAmp® Optical 96-well reaction plates with barcode using the 7900HT Fast real-time PCR system, and data were analyzed with 2.3 SDS software and normalized by 18s endogenous control. […]
(§3) aminomethylbenzoic acid in the presence of HATU and diisopropylethylamine and subsequent […]
(§4) on NHS-activated Sepharose 4 Fast Flow resin (GE Healthcare Bio-Sciences AB, Uppsala, […]
(§5) Affinity chromatography was performed as reported previously with total cell lysates of PC9 and PC9GR cells containing each 5.5 mg of protein.
(§6) Eluates were loaded on a SDS-PAGE gel, briefly run into the gel, and excised as a single piece before in-gel trypsin digestion and sample processing, which was done as described (Rix et al, LC-MS/MS analysis was performed in duplicate on a LTQ-Orbitrap MS (Thermo Fisher). […]
(§7) searching with the Mascot (Matrix Science) and Sequest (Thermo Fisher) search engines.
(§8) Kinase inhibition analysis […]

[4] = tested on: proteins in total cell lysates of PC9GR cells; assay: as above; assay type: binding, human; conditions: PC9 and PC9GR lysates
Method: as §1, §2, §3, §4, §5, §6, §7, §8

[5] = target: T2, EGFR L858R (Homo sapiens, UniProt P00533, L858R); assay: In vitro kinase inhibition assay (Millipore KinaseProfiler); assay type: biochemical; conditions: activating point mutation L858R; 0.0001 to 1 μM vs DMSO
T2 construct: purchased Merck Millipore (KinaseProfiler service)
Method: (§9) In vitro kinase inhibition assays were performed on the Millipore KinaseProfiler™ platform.
(§10) In vitro kinase assays were conducted using Merck Millipore's KinaseProfiler service according to the protocols detailed at http://www.millipore.com/techpublications/tech1/pf3036.
(§11) Human Phospho-kinase array assay
(§12) PC9 and PC9GR cells were infected with lentivirus expressing shRNA against ARHG5 or scrambled shRNA as control for 48 hours. The relative levels of phosphorylation of 46 kinase phosphorylation sites determination was performed using Human Phospho-Kinase Array Kit (R&D Systems, Minneapolis, MN). Briefly, two-hundred micrograms of total cell lysate protein were incubated with Phospho-Kinase array membranes overnight at 4 C. Detection of proteins was accomplished using the Detection Antibody Cocktail and enhanced […]

[6] = target: EGFR wild type (Homo sapiens, UniProt P00533); assay: as above; assay type: biochemical; conditions: wild-type allele; 0.0001 to 1 μM vs DMSO
Method: as §9, §10, §11, §12

[7] = target: proteins in total cell lysates of PC9 cells (Homo sapiens, UniProt P00533, DEL746-750); assay: Midostaurin affinity chromatography (drug pulldown) with LC-MS/MS, PC9 lysate; assay type: binding
Method: as §1, §2, §3, §4, §5, §6, §7, §8

[8] = tested on: HCC4006 cells
Method: (§13) The ON-TARGET plus Smart pool custom siRNA library included siRNA pools containing four different siRNAs. This custom library and the ON-TARGET plus Non-Targeting Pool, non-targeting siRNA #4, and GAPD control siRNA pool were purchased from Thermo Scientific (Dharmacon). siRNA was delivered in triplicate to each well using a Precision^TM microplate liquid handler (BioTek). Plates were incubated for 5 days for cell viability assay and for 48 h for the pERK and pAKT in-cell western analyses. […] Viability and signaling changes were determined for each target gene after normalization on ON-TARGET plus Non-Targeting pool control siRNA. […]
(§14) The cell viability assay (CellTiter-Glo) was conducted according to the recommendations for the CellTiter-Glo Luminescent Cell Viability Assay from Promega (Madison, WI). Cells were plated […]
(§15) and either transfected with siRNA or infected with […] of lentiviruses plus 6 µg/mL polybrene (Sigma) for 5 days. Cell-Titer Glo reagent was added to each well, and luminescence was recorded using Victor plate reader from PerkinElmer (Walthom, MA). […]

[9] = tested on: HCC4006ER cells
Method: as §13, §14, §15

[10] = tested on: HCC827ER cells
Method: as §13, §14, §15

[11] = tested on: HCC827 cells
Method: as §13, §14, §15

[12] = tested on: PC9 cells
Method: as §13, §14, §15

[13] = tested on: PC9GR cells
Method: as §13, §14, §15

C[C@]12O[C@H](C[C@]1(O)CO)n1c3ccccc3c3c4c(c5c6ccccc6n2c5c31)CNC4=O [CEP-701, lestaurtinib]
effects on EGFR and downstream ERK phosphorylation [1]: little to modest effects; also recorded: reductions in ERK phosphorylation at concentrations below those necessary for inhibition of EGFR phosphorylation
tolerability ([2]; leukemia, ref Marshall et al, 2005): good tolerability

C#Cc1cccc(Nc2ncnc3cc(OCCOC)c(OCCOC)cc23)c1 [Erlotinib, erlotinib]
effects on EGFR and downstream ERK phosphorylation [1]: modest effects

CO[C@@H]1[C@H](N(C)C(=O)c2ccccc2)C[C@H]2O[C@]1(C)n1c3ccccc3c3c4c(c5c6ccccc6n2c5c31)C(=O)NC4 [Midostaurin, midostaurin]
effects on EGFR and downstream ERK phosphorylation ([1]; western blotting after 4 h, three T790M EGFR cell lines): modest effects
EGFR binding to immobilized midostaurin [3]: EGFR bound to midostaurin
protein kinases observed in total in midostaurin pulldown [4]: 71
effect on EGFR kinase activity [5]: no substantial effect
effect on EGFR kinase activity [6]: no substantial effect
tolerability ([2]; patients with leukemia and lung cancer, ref Monnerat et al, 2004, Fischer et al, 2010): well tolerated
EGFR binding to immobilized midostaurin [7]: no EGFR associated with midostaurin

TITIN
HCC4006_Viability Viability % [8]: 63.88%
HCC4006ER_Viability Viability % [9]: 71.94%
HCC827ER_Viability Viability % [10]: 73.41%
HCC827_Viability Viability % [11]: 67.29%
PC9_Viability Viability % [12]: 69.56%
PC9GR_Viability Viability % [13]: 62.56%

From publication PMC4039310 (Molecular Systems Biology, 2013)
